{
  "source": "patent US11168052B2",
  "about": "“Carbamate derivative compounds, processes for preparing them and their uses” (BIO-PHARM SOLUTIONS CO., LTD., priority 2016, dated 2021)",
  "key": {"ICR mice on hot plate": {"test_system": "ICR mice on hot plate", "test": "Hot-plate test", "type": "in vivo", "conditions": "Mus musculus, po, orally, withdrawal latency", "procedure": "To examine the pain relief effect of the carbamate compounds, a hot-plate test was conducted in referring to Current Protocols in Neuroscience; Behavioral Neuroscience Unit 8.9.\n(§1) ICR mice (male, 25-28 g; Orient Bio, Korea) were habituated before test (in test room) for 1 hour. Animals were fasted 2 hr before administration of compounds. Compounds were orally administered at the three dose, 10 ul/g, by bodyweight (n=4-6/group). All compounds were dissolved in a vehicle of 30% (v/v) PEG 400 or 20% (v/v) Tween 80. The control group was treated the vehicle without compounds.\n0.25-2.0 hr after the administration of compounds, the mice were put on a hot plate pre-heated to 55±1 (Hu, X. et al, 2008), and then, the withdrawal latency time was measured (cut-off time: 30 sec) until the point when each mouse was taking a paw off from the plate, shaking, licking a paw or hind leg, or jumping from the plate."}, "SNL model in rats": {"test_system": "SNL model in rats", "test": "Antiallodynic activity on Chung model (SNL, spinal nerve ligation), von Frey test", "type": "in vivo, Sprague-Dawley rats", "conditions": "orally", "source_text": "Male Sprague-Dawley rats (100-130 g, Orient Bio, Korea) were habituated for 1 week before the experiment, and allowed free access to food and water throughout the experimentation. Room temperature and humidity were maintained at 24±2 and 50±10%, respectively. The neuropathic surgery (SNL, Spinal nerve ligation) model was done as described in Kim and Chung (1992). Briefly, an animal was put under gaseous anesthesia with isoflurane. The left lumber spinal nerve L5 and L6 were isolated and tightly ligated with 6-0 silk thread. […]\nTactile sensitivity (Mechanical allodynia) was evaluated using von Frey monofilaments before and after treatment, and animals were included in the study only if the withdrawal threshold value was less than 4 g. […] The tactile sensitivity for the ipsilateral hind paw was measured using the up-and-down method (Dixon, 1980) with seven von Frey monofilaments (0.4, 1, 2, 4, 6, 8, and 15 g) in 3 trials. […] The 50% paw withdrawal threshold for each paw was calculated using the following formula: [Xth]log=[vFr]log+ky where [vFr] is the force of the last von Frey used, k=0.2249 which is the average interval (in log units) between the von Frey monofilaments, and y is a value that depends upon the pattern of withdrawal responses (Dixon, 1980). […]"}, "[1]": {"test_system": "MES (electroshock) seizure in mice", "test": "Anti-epilepsy activity, MES test in mouse", "type": "in vivo, ICR mice", "conditions": "po", "summary_of_the_method": "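Male ICR mice (19–25 g) and male SD rats (100–130 g) dosed orally with compound in 20% Tween 80/saline, then shocked via corneal electrodes at peak time (mice 50 mA, rats 150 mA; 60 Hz, 0.2 sec). Three doses used; ED50 for seizure protection by Litchfield–Wilcoxon log-probit.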"}, "[2]": {"test_system": "acetic acid-induced writhes in ICR mice", "test": "Writhing test (acetic acid)", "type": "in vivo", "conditions": "Mus musculus, po", "procedure": "To examine the pain relief effect of the carbamate compounds, a writhing test was conducted, referring to Fischer, L. G. et al. (2008).\nas §1, with “24-28g;” for “25-28 g;”, “Each of compounds was” for “Compounds were”, “bw (n=3-5/group).” for “by bodyweight (n=4-6/group).”\n0.2-2 hour after the administration of compounds, 0.6% acetic acid at the dose of 10 ul/g by bodyweight was injected into the mice Animals were habituated in the cage for 5 min. 5 min after habituation, the number of writhes (abdominal constriction) was counted for 15 min, referring to Korzeniewska-Rybicka, I. et al. (1998) and compared with that of a control.\nThe relative values compared to the control (% control) were calculated and shown in […]"}},
  "data": [
    {"smiles": "NC(=O)O[C@@H]1CCc2cccc(Cl)c2[C@@H]1O", "note": "[Example 1, (1S, 2R)-8-chloro-1-hydroxy-1,2,3,4-tetrahydronaphthalen-2-yl carbamate]", "values": [
      {"measurement": "ED50", "setting": "ICR mice on hot plate", "result": 101, "unit": "mg/kg"},
      {"measurement": "ED50", "setting": "SNL model in rats; Rattus norvegicus, po, von Frey threshold relative to sham", "result": 35.5, "unit": "mg/kg"},
      {"measurement": "ED50", "setting": "[1]", "result": 12.1, "unit": "mg/kg"},
      {"measurement": "ED50", "setting": "[2]", "result": 46.1, "unit": "mg/kg"}
    ]},
    {"smiles": "NC(=O)O[C@@H]1c2c(Cl)cccc2CC[C@@H]1O", "note": "[Example 19, (1R, 2S)-8-chloro-2-hydroxy-1,2,3,4-tetrahydronaphthalen-1-yl carbamate]", "values": [
      {"measurement": "ED50", "setting": "ICR mice on hot plate", "result": "> 100", "unit": "mg/kg"},
      {"measurement": "SNL efficacy %", "setting": "SNL model in rats; dose 30 mg/kg", "result": "30(17.8%)"},
      {"measurement": "ED50", "setting": "[1]", "result": 22.4, "unit": "mg/kg"},
      {"measurement": "ED50", "setting": "[2]", "result": 30, "unit": "mg/kg"}
    ]}
  ]
}
